Holding throughout (type): biochemical
One experiment has as its target T1, BMX (Homo sapiens, UniProt P51813).
T1 construct: purchased Reaction Biology Europe GmbH
T1 sequence (P51813 1-675): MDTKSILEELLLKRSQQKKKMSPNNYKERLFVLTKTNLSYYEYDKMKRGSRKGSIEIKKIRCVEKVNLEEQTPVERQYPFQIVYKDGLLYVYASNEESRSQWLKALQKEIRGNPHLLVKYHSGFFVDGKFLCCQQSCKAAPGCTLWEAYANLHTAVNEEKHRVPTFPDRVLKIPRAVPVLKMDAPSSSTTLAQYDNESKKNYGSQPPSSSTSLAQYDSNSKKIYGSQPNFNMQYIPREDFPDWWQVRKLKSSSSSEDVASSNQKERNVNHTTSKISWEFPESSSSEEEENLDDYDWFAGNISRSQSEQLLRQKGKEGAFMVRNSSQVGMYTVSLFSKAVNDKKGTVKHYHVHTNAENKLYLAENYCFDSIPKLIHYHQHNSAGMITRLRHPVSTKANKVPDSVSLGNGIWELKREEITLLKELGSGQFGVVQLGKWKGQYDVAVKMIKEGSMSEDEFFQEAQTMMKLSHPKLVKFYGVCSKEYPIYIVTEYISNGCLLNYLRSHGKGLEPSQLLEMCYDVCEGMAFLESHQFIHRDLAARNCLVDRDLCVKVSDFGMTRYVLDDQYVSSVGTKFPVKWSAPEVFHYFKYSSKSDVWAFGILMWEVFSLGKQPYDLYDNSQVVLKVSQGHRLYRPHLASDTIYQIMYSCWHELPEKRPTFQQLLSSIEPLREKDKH
As to the kind of experiment: PanQinase kinase panel: BMX. Conditions: read-out: INHIBITORY EFFECT @ 1 uM: BMX. Here is the method: (§1) Screening procedures were performed in accordance with the company's on-line protocol [accessed on-line Mar.
(§2) For each kinase, the median value of the cpm of three wells was defined as “low control” (n=3). This value reflects unspecific binding of radioactivity to the plate in the absence of a protein kinase but in the presence of the substrate. Additionally, for each kinase the median value of the cpm of three other wells was taken as the “high control,” i.e. full activity in the absence of any inhibitor (n=3). The difference between high and low control of each enzyme was taken as 100% activity.
As part of the data evaluation the low control of each kinase was subtracted from the high control value as well as from their corresponding “compound values”.

A further experiment deals with T2, INSRR (Homo sapiens, UniProt P14616).
T2 construct: purchased Reaction Biology Europe GmbH
The experiment can be described thus: PanQinase kinase panel: INSRR. Conditions: read-out: INHIBITORY EFFECT @ 1 uM: INSRR. Here is the method:
as §1, §2
(§3) As part of the data evaluation the low control of each kinase was subtracted from the high control value as well as from their corresponding “compound values”. The residual activity (in %) for each compound well was calculated by using the following formula: Res. Activity (%)=100×[(signal of compound−low control)/(high control−low control)].

Another experiment has as its target T3, EGFR (Homo sapiens, UniProt P00533).
T3 construct: purchased Reaction Biology Europe GmbH
The experiment can be described thus: PanQinase kinase panel: EGFR. Conditions: read-out: INHIBITORY EFFECT @ 1 uM: EGFR. Here is the method:
as §1, §2, §3

The target in the next experiment is T4, FER (Homo sapiens, UniProt P16591).
T4 construct: purchased Reaction Biology Europe GmbH
As to the kind of experiment: PanQinase kinase panel: FER. Particulars: read-out: INHIBITORY EFFECT @ 1 uM: FER. Here is the method:
as §1, §2, §3

The next experiment deals with T5, CK1epsilon (Homo sapiens, UniProt P49674).
T5 construct: purchased Reaction Biology Europe GmbH
The experiment can be described thus: PanQinase kinase panel: CK1epsilon. Particulars: read-out: INHIBITORY EFFECT @ 1 uM: CK1epsilon. Here is the method:
as §1, §2, §3

The target of a further experiment is T6, RAF1 YDYD (Homo sapiens, UniProt P04049, Y340D/Y341D).
T6 construct: purchased Reaction Biology Europe GmbH
The experiment can be described thus: PanQinase kinase panel: RAF1 YDYD. Particulars: read-out: INHIBITORY EFFECT @ 1 uM: RAF1 YDYD. Here is the method:
as §1, §2, §3

The target of a further experiment is T7, FRK (Homo sapiens, UniProt P42685).
T7 construct: purchased Reaction Biology Europe GmbH
The experiment can be described thus: PanQinase kinase panel: FRK. Conditions: read-out: INHIBITORY EFFECT @ 1 uM: FRK. Here is the method: as §1, §2, §3

The target in the next experiment is T8, MEKK2 (Homo sapiens, UniProt Q9Y2U5).
T8 construct: purchased Reaction Biology Europe GmbH
T8 sequence (Q9Y2U5 1-619): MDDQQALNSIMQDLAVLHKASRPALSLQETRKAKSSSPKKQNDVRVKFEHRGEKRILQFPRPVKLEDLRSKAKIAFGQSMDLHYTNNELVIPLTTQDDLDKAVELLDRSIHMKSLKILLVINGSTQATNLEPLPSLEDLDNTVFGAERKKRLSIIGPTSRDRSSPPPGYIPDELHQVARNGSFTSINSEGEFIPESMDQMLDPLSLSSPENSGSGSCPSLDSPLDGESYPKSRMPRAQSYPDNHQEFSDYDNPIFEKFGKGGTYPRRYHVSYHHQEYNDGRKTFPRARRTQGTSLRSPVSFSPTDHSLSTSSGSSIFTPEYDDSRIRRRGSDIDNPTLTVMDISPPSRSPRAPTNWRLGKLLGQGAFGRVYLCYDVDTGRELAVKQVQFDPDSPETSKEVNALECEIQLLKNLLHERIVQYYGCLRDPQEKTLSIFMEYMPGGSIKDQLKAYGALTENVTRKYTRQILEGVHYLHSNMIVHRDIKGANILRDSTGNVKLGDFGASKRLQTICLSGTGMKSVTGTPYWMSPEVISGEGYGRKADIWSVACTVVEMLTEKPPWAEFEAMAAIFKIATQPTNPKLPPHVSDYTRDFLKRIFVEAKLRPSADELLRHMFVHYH
The experiment can be described thus: PanQinase kinase panel: MEKK2. Conditions: read-out: INHIBITORY EFFECT @ 1 uM: MEKK2. Here is the method:
as §1, §2, §3

The next experiment addresses T9, MST1 (Homo sapiens, UniProt Q13043).
T9 construct: purchased Reaction Biology Europe GmbH
T9 sequence (Q13043 1-487): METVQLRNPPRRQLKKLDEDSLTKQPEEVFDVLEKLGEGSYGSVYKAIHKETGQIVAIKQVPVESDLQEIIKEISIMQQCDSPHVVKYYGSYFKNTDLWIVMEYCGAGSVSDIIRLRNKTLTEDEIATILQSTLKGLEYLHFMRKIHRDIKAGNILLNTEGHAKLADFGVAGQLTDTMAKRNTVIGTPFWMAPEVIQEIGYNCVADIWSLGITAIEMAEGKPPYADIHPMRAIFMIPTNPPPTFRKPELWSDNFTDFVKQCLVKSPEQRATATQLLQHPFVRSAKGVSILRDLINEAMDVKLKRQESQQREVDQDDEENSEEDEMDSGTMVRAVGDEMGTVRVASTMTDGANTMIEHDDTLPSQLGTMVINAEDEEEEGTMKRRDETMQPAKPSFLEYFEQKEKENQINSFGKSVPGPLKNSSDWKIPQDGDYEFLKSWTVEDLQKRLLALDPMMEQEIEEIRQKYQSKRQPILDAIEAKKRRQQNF
As to the kind of experiment: PanQinase kinase panel: MST1. Particulars: read-out: INHIBITORY EFFECT @ 1 uM: MST1. Here is the method: as §1, §2, §3

The target of a further experiment is T10, RIPK2 (Homo sapiens, UniProt O43353).
T10 construct: purchased Reaction Biology Europe GmbH
As to the kind of experiment: PanQinase kinase panel: RIPK2. Conditions: read-out: INHIBITORY EFFECT @ 1 uM: RIPK2. Here is the method: as §1, §2, §3

T5 sequence (P49674 whole entry): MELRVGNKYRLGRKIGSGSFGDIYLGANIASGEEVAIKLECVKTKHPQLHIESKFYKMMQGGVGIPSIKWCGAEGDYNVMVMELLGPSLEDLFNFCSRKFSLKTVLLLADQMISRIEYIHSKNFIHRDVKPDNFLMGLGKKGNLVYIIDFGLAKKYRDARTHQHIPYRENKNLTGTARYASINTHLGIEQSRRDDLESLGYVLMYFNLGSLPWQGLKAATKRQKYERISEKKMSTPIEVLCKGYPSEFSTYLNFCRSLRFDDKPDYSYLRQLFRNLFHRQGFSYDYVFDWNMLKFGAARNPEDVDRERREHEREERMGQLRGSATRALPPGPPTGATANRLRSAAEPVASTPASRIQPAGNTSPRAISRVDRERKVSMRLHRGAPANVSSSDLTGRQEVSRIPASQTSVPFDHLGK
T6 sequence (P04049 307-648 Y340D/Y341D limits assumed): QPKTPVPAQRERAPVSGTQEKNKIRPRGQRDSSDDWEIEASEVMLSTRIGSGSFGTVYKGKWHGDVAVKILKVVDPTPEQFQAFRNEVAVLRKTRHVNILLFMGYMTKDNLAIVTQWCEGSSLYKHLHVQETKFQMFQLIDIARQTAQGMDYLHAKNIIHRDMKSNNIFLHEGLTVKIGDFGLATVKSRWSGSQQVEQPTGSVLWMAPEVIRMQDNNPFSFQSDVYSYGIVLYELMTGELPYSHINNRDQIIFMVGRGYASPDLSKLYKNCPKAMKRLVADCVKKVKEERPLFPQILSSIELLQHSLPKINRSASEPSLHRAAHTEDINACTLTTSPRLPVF
T4 sequence (P16591 whole entry): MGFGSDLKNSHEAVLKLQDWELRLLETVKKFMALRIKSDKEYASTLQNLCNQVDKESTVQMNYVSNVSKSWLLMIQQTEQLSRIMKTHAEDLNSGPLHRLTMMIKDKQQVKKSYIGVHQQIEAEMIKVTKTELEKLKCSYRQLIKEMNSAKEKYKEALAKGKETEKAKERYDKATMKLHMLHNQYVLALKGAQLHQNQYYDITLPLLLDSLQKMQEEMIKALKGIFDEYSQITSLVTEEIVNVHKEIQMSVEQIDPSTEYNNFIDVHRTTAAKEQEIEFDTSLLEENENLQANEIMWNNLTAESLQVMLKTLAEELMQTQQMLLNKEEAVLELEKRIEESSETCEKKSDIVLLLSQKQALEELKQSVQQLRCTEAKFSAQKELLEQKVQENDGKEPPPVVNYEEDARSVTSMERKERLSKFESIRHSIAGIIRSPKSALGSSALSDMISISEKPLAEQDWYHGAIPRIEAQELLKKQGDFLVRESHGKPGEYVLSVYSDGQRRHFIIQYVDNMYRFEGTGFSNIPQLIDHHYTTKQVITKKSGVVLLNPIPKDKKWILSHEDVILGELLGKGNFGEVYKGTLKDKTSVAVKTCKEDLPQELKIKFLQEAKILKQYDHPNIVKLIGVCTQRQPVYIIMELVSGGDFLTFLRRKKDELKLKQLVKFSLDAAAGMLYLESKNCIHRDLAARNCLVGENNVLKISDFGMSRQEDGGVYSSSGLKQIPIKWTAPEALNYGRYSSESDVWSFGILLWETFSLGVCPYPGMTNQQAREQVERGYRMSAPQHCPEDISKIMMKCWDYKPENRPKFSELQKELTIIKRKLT
T3 sequence (P00533 25-1210): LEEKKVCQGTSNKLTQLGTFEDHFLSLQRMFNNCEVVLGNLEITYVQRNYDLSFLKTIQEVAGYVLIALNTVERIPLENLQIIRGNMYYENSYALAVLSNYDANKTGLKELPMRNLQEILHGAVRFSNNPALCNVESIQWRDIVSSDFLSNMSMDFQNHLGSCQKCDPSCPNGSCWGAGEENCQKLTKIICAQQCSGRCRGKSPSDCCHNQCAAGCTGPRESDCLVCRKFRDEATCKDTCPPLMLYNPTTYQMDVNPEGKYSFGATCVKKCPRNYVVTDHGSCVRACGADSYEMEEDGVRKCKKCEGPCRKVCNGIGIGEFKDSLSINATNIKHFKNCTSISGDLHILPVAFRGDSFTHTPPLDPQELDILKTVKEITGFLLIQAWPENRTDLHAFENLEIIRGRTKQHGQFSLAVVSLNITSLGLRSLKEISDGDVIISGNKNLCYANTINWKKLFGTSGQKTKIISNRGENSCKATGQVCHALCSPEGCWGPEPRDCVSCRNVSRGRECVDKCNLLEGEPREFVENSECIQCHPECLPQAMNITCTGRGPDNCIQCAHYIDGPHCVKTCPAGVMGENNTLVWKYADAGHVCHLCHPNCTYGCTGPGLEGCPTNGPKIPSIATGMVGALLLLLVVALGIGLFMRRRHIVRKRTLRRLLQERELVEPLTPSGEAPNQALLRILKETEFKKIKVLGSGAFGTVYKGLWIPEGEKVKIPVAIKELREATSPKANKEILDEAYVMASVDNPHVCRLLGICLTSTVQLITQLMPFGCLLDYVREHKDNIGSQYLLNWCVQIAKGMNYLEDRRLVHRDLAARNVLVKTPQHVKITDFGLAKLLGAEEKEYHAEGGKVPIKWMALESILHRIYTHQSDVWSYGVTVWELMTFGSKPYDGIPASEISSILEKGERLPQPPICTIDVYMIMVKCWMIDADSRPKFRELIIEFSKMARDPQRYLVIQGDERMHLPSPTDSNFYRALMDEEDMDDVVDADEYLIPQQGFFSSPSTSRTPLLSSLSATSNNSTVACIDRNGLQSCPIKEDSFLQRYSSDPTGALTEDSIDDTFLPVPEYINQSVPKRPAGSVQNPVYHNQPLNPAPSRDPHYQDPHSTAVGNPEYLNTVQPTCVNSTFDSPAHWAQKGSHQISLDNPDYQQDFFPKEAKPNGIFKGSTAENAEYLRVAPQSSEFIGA
T10 sequence (O43353 whole entry): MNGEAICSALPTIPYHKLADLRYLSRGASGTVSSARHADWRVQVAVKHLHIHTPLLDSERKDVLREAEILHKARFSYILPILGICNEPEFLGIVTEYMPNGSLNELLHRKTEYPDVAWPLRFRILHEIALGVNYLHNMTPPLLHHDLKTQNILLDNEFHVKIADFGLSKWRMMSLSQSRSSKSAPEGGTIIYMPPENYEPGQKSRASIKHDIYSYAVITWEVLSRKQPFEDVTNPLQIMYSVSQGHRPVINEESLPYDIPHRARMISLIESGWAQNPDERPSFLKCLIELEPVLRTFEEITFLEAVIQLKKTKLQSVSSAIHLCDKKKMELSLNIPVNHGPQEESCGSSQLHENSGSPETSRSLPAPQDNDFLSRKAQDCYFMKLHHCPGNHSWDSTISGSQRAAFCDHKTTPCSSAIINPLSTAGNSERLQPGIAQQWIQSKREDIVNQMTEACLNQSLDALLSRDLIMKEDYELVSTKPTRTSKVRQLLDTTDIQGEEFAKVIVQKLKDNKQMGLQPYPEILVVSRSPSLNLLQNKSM
T7 sequence (P42685 whole entry): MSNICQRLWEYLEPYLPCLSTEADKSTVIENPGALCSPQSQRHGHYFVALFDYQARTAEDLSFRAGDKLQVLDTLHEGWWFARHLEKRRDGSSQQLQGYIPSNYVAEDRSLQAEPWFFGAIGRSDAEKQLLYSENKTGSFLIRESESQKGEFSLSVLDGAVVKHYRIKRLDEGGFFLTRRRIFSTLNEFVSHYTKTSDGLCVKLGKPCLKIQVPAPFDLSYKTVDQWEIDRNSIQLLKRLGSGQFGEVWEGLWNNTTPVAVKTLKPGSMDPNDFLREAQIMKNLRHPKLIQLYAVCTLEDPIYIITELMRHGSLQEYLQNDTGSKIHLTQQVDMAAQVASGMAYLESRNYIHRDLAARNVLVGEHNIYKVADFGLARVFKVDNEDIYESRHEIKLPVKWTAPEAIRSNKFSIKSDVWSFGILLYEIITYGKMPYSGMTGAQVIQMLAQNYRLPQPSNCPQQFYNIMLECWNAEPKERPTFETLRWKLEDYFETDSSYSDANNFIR

Regarding `O=C(c1ccc(Oc2ccccc2)cc1Cl)c1c[nH]c2ncnc(N[C@@H]3CC[C@@H](CO)OC3)c12` [ARQ-531, (2-chloro-4-phenoxyphenyl) (4-(((3R,6S)-6-(hydroxymethyl)tetrahydro-2H-pyran-3-yl)amino)-7H-pyrrolo[2,3-d]pyrimidin-5-yl) methanone], the inhibition at 1 µM was in the range of 90 to 100% at BMX; 90 to 100% on INSRR; 70 to 89% at EGFR; 70 to 89% at FER; 50 to 69% at CK1epsilon; 70 to 89% at RAF1 YDYD. The inhibition at 1 µM on FRK is 70 to 89%; at MEKK2 it was 70 to 89%; on MST1, 70 to 89%; on RIPK2 it was 90 to 100%.

For the compound `Cc1cccnc1[C@H]1CCC[C@@H](c2ncccc2C)N1CCN1CCN(C(=O)c2ccc(-c3cc4c(-c5cccc(NC(=O)c6ccccc6)c5C)ncnc4[nH]3)cc2)CC1` [Compound I-10, N-(3-(6-(4-(4-(2-((2R,6S)-2,6-bis(3-methylpyridin-2-yl)piperidin-1-yl)ethyl)piperazine-1-carbonyl)phenyl)-7H-pyrrolo[2,3-d]pyrimidin-4-yl)-2-methylphenyl)benzamide], the inhibition at 1 µM at BMX was 70 to 89%; at INSRR, under 50%; at EGFR it was under 50%; at FER, under 50%; on CK1epsilon, under 50%; at RAF1 YDYD it was under 50%. Besides, the inhibition at 1 µM on FRK, at MEKK2, at MST1 and on RIPK2 was under 50% in each case.

As for `COc1ccc(F)cc1C(=O)NCc1ccc(-c2nn([C@@H](C)C(F)(F)F)c(N)c2C(N)=O)cc1` [LOXO-305, pirtobrutinib], the inhibition at 1 µM is 50 to 69% on BMX; under 50% on INSRR; under 50% on EGFR; under 50% at FER; under 50% on CK1epsilon; under 50% on RAF1 YDYD. In addition, the inhibition at 1 µM on FRK, on MEKK2, at MST1 and at RIPK2 was under 50% each time.

With `C=CC(=O)N1CCC([C@@H]2CCNc3c(C(N)=O)c(-c4ccc(Oc5ccccc5)cc4)nn32)CC1` [Zanubrutinib, (7S)-2-(4-phenoxyphenyl)-7-(1-prop-2-enoylpiperidin-4-yl)-4,5,6,7-tetrahydropyrazolo[1,5-a]pyrimidine-3-carboxamide], the inhibition at 1 µM is under 50% on INSRR; under 50% at EGFR; under 50% on FER; under 50% on CK1epsilon; under 50% at RAF1 YDYD; 50 to 69% at FRK. Also, the inhibition at 1 µM on MEKK2 was under 50%; at MST1, under 50%; at RIPK2 it was 50 to 69%.

These data come from patent US20250326753A1, “DUAL CXCR4-BTK INHIBITORS” (X4 Pharmaceuticals, Inc., priority 2022, published 2025).
